Laboratory results as given in patent US20240360178A1, “MACROCYCLIC IMMUNOMODULATORS” (Bristol-Myers Squibb Company, priority 2021, published 2024).
Positions of bridges follow the written chain, without caps; N, C: chain ends. Non-standard residues stand in square brackets, D forms with d. Residues, ends and D or L forms follow the SMILES beside them. *: point of attachment. Phe(4-COOH) = N[C@@H](Cc1ccc(C(=O)O)cc1)C(=O)O; Bip = N[C@@H](Cc1ccc(-c2ccccc2)cc1)C(=O)O; Phe(3-Me) = Cc1cccc(C[C@H](N)C(=O)O)c1; NMeF = CN[C@@H](Cc1ccccc1)C(=O)O; 4Pal = N[C@@H](Cc1ccncc1)C(=O)O; dHyp = O=C(O)[C@H]1C[C@H](O)CN1; Cha = N[C@@H](CC1CCCCC1)C(=O)O; NMeN = CN[C@@H](CC(N)=O)C(=O)O; Carboxymethyl = O=C(O)C*; NMeA = CN[C@@H](C)C(=O)O; Dab = NCC[C@H](N)C(=O)O; NBuGly = CCCCNCC(=O)O; Aib = CC(C)(N)C(=O)O; Sar = CNCC(=O)O

The molecules below were run against T1, human PD-1 (Jurkat-PD-1 cells) / PE-labeled human PD-L1-Ig (Homo sapiens, UniProt Q15116) (assay: Jurkat-PD-1 Cell Binding High-Content Screening Assay (CBA); Jurkat hPD1-PDL1 assay). Conditions: Jurkat cell line over-expressing human PD-1; PE-labeled PD-L1-Ig 20 nM final; compound incubated 2 hours at 37° C.; read-out: Jurkat HPD1-PDL1 IC50.
T1 construct: expressed in transfected cells; host or cells: Jurkat cell line over-expressing human PD-1
Outline: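 Compound was added to Jurkat-PD-1 cells in DMEM plus 10% fetal calf serum and incubated 2 hours at 37° C. Binding of phycoerythrin-conjugated PD-L1-Ig (20 nM final) to the cells was imaged.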

T1 sequence (Q15116 25-288): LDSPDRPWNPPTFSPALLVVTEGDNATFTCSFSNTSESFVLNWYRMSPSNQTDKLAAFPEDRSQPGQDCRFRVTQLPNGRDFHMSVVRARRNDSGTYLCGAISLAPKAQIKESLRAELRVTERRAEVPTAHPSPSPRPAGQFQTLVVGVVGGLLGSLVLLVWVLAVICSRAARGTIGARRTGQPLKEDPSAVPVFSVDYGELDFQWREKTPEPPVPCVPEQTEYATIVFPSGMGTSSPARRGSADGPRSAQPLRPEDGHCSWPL

Row | SMILES | IC50 [nM]
1 | CC(C)C[C@@H]1NC(=O)[C@H](Cc2c[nH]c3ccccc23)NC(=O)[C@H](CC(=O)O)NC(=O)[C@H](Cc2ccc(O)cc2)NC(=O)[C@H](Cc2ccccc2)NC(=O)CSC[C@@H](C(=O)NCC(N)=O)NC(=O)[C@H](CO)NC(=O)[C@H](C(C)C)NC(=O)[C@H](CC(C)C)NC(=O)[C@H](CC(N)=O)NC(=O)[C@H](CC(N)=O)N(C)C(=O)[C@H](C)N(C)C(=O)[C@H](C(C)C)NC(=O)[C@H](Cc2ccc(-c3ccccc3)cc2)NC1=O [Example 1148] ({CH2CO}-FYDWL[Bip]V[NMeA][NMeN]NLVSCG-NH2; thioether N-14) | 670
2 | CC(C)C[C@@H]1NC(=O)[C@H](Cc2c[nH]c3ccccc23)NC(=O)[C@H](CC(=O)O)NC(=O)[C@H](Cc2ccc(O)cc2)NC(=O)[C@H](Cc2ccccc2)NC(=O)CSC[C@@H](C(=O)NCC(N)=O)NC(=O)[C@H](CO)NC(=O)[C@H](C(C)C)NC(=O)[C@H](CC(C)C)NC(=O)[C@H](CCC(=O)O)NC(=O)CN(C)C(=O)[C@H](C)N(C)C(=O)[C@H](C(C)C)NC(=O)[C@H](Cc2ccc(-c3ccccc3)cc2)NC1=O [Example 1071] ({CH2CO}-FYDWL[Bip]V[NMeA][Sar]ELVSCG-NH2; thioether N-14) | 190
3 | CC(C)C[C@@H]1NC(=O)[C@H](CCCNC(=N)N)NC(=O)[C@H](Cc2ccccc2)N(C)C(=O)[C@H](C)N(C)C(=O)[C@H](CCCNC(=N)N)NC(=O)[C@H](Cc2ccc(-c3ccccc3)cc2)NC(=O)[C@H](C(C)C)NC(=O)[C@H](Cc2c[nH]c3ccccc23)NC(=O)[C@H](CC(=O)O)NC(=O)[C@H](Cc2ccc(O)cc2)NC(=O)[C@H](CCCNC(=N)N)NC(=O)CSC[C@@H](C(=O)NCC(N)=O)NC(=O)[C@H](CO)NC(=O)[C@H](C(C)C)NC1=O [Example 1212] ({CH2CO}-RYDWV[Bip]R[NMeA][NMeF]RLVSCG-NH2; thioether N-14) | 610
4 | Cc1cccc(C[C@@H]2NC(=O)[C@H](CC(=O)O)NC(=O)[C@H](Cc3ccc(OCC(=O)O)cc3)NC(=O)[C@H](Cc3ccc(OCC(=O)O)cc3)NC(=O)CSC[C@@H](C(=O)N[C@@H](C)C(N)=O)NC(=O)[C@H](CO)NC(=O)[C@H](C(C)C)NC(=O)[C@H](CC(C)C)NC(=O)[C@H](CC(N)=O)NC(=O)[C@H]3CCCN3C(=O)[C@H](C)N(C)C(=O)[C@H](C(C)C)NC(=O)[C@H](Cc3ccc(-c4ccccc4)cc3)NC(=O)[C@H](CC(C)C)NC2=O)c1 [Example 1437] ({CH2CO}-Y(Carboxymethyl)Y(Carboxymethyl)D[Phe(3-Me)]L[Bip]V[NMeA][dP]NLVSCA-NH2; thioether N-14) | 30
5 | CC(C)C[C@@H]1NC(=O)[C@H](CCCNC(=N)N)NC(=O)[C@H](Cc2ccccc2)N(C)C(=O)[C@H](C)N(C)C(=O)[C@H](CCCNC(=N)N)NC(=O)[C@H](Cc2ccc(-c3ccccc3)cc2)NC(=O)[C@H](C(C)C)NC(=O)[C@H](Cc2c[nH]c3ccccc23)NC(=O)[C@H](CC(=O)O)NC(=O)[C@H](Cc2ccc(O)cc2)NC(=O)[C@H](Cc2ccccc2)NC(=O)CSC[C@@H](C(=O)NC(C)(C)C(N)=O)NC(=O)[C@H](CO)NC(=O)[C@H](C(C)C)NC1=O [Example 1328] ({CH2CO}-FYDWV[Bip]R[NMeA][NMeF]RLVSC[Aib]-NH2; thioether N-14) | 480
6 | CC(C)C[C@@H]1NC(=O)[C@H](CCN)NC(=O)[C@H](Cc2ccccc2)N(C)C(=O)[C@H](C)N(C)C(=O)[C@H](CCCNC(=N)N)NC(=O)[C@H](Cc2ccc(-c3ccccc3)cc2)NC(=O)[C@H](C(C)C)NC(=O)[C@H](Cc2c[nH]c3ccccc23)NC(=O)[C@H](CC(=O)O)NC(=O)[C@H](Cc2ccc(O)cc2)NC(=O)[C@H](CC(N)=O)NC(=O)CSC[C@@H](C(=O)N[C@@H](C)C(N)=O)NC(=O)[C@H]([C@@H](C)O)NC(=O)[C@H](C(C)C)NC1=O [Example 1320] ({CH2CO}-NYDWV[Bip]R[NMeA][NMeF][Dab]LVTCA-NH2; thioether N-14) | 150
7 | CC(C)C[C@@H]1NC(=O)[C@H](Cc2c[nH]c3ccccc23)NC(=O)[C@H](CC(=O)O)NC(=O)[C@H](Cc2ccc(O)cc2)NC(=O)[C@H](Cc2ccccc2)NC(=O)CSC[C@@H](C(=O)NCC(N)=O)NC(=O)[C@H]([C@@H](C)O)NC(=O)[C@H](C(C)C)NC(=O)[C@H](CC(C)C)NC(=O)[C@H](CC(N)=O)NC(=O)[C@H]2CCCN2C(=O)[C@H](CCN)NC(=O)[C@H](C(C)C)NC(=O)[C@H](Cc2ccc(-c3ccccc3)cc2)NC1=O [Example 1411] ({CH2CO}-FYDWL[Bip]V[Dab][dP]NLVTCG-NH2; thioether N-14) | 440
8 | CC(C)C[C@@H]1NC(=O)[C@H](CCCNC(=N)N)NC(=O)[C@H](Cc2ccccc2)N(C)C(=O)[C@H](C)N(C)C(=O)[C@H](CCCNC(=N)N)NC(=O)[C@H](Cc2ccc(-c3ccccc3)cc2)NC(=O)[C@H](C(C)C)NC(=O)[C@H](Cc2c[nH]c3ccccc23)NC(=O)[C@H](CC(=O)O)NC(=O)[C@H](Cc2ccc(O)cc2)NC(=O)[C@H](CC(N)=O)NC(=O)CSC[C@@H](C(=O)NCC(N)=O)NC(=O)[C@H](CO)NC(=O)[C@H](C(C)C)NC1=O [Example 1032] ({CH2CO}-NYDWV[Bip]R[NMeA][NMeF]RLVSCG-NH2; thioether N-14) | 60
9 | Cc1cccc(C[C@@H]2NC(=O)[C@H](CC(=O)O)NC(=O)[C@H](Cc3ccc(C(=O)O)cc3)NC(=O)[C@H](Cc3ccc(OCC(=O)O)cc3)NC(=O)CSC[C@@H](C(=O)N[C@@H](C)C(N)=O)NC(=O)[C@H](CO)NC(=O)[C@H](C(C)C)NC(=O)[C@H](CC(C)C)NC(=O)[C@H](CC(N)=O)NC(=O)[C@H]3CCCN3C(=O)[C@H](C)N(C)C(=O)[C@H](C(C)C)NC(=O)[C@H](Cc3ccc(-c4ccccc4)cc3)NC(=O)[C@H](CC(C)C)NC2=O)c1 [Example 1436] ({CH2CO}-Y(Carboxymethyl)[Phe(4-COOH)]D[Phe(3-Me)]L[Bip]V[NMeA][dP]NLVSCA-NH2; thioether N-14) | 40
10 | CC(C)C[C@@H]1NC(=O)[C@H](Cc2c[nH]c3ccccc23)NC(=O)[C@H](CC(=O)O)NC(=O)[C@H](Cc2ccc(O)cc2)NC(=O)[C@H](Cc2ccccc2)NC(=O)CSC[C@@H](C(=O)N[C@@H](C)C(N)=O)NC(=O)[C@H](CO)NC(=O)[C@H](C(C)C)NC(=O)[C@H](CC(C)C)NC(=O)[C@H](CC(N)=O)NC(=O)[C@H]2CCCN2C(=O)[C@H]2CCCN2C(=O)[C@H](C(C)C)NC(=O)[C@H](Cc2ccc(-c3ccccc3)cc2)NC1=O [Example 1007] ({CH2CO}-FYDWL[Bip]V[dP][dP]NLVSCA-NH2; thioether N-14) | 150

More lines, in order of falling IC50, values ahead:

Row | IC50 [nM] | SMILES
11 | 590 | CC(C)C[C@@H]1NC(=O)[C@H](CCCNC(=N)N)NC(=O)[C@H](Cc2ccccc2)N(C)C(=O)[C@H](C)N(C)C(=O)[C@H](CCCNC(=N)N)NC(=O)[C@H](Cc2ccc(-c3ccccc3)cc2)NC(=O)[C@H](C(C)C)NC(=O)[C@H](Cc2c[nH]c3ccccc23)NC(=O)[C@H](CC(=O)O)NC(=O)[C@H](CCCCN)NC(=O)[C@H](Cc2ccccc2)NC(=O)CSC[C@@H](C(=O)NCC(N)=O)NC(=O)[C@H](CO)NC(=O)[C@H](C(C)C)NC1=O [Example 1213] ({CH2CO}-FKDWV[Bip]R[NMeA][NMeF]RLVSCG-NH2; thioether N-14)
12 | 500 | CC(C)C[C@@H]1NC(=O)[C@H](C)NC(=O)CN(C)C(=O)[C@H](C)N(C)C(=O)[C@H](C(C)C)NC(=O)[C@H](Cc2ccc(-c3ccccc3)cc2)NC(=O)[C@H](CC(C)C)NC(=O)[C@H](Cc2c[nH]c3ccccc23)NC(=O)[C@H](CC(=O)O)NC(=O)[C@H](Cc2ccc(O)cc2)NC(=O)[C@H](Cc2ccccc2)NC(=O)CSC[C@@H](C(=O)NCC(N)=O)NC(=O)[C@H](CO)NC(=O)[C@H](C(C)C)NC1=O [Example 1130] ({CH2CO}-FYDWL[Bip]V[NMeA][Sar]ALVSCG-NH2; thioether N-14)
13 | 380 | CCCCN1CC(=O)N[C@@H](CCN)C(=O)N[C@@H](CC2CCCCC2)C(=O)N[C@@H](C(C)C)C(=O)N[C@@H](CO)C(=O)N[C@H](C(=O)N[C@@H](CCN)C(N)=O)CSCC(=O)N[C@@H]([C@@H](C)O)C(=O)N[C@@H](Cc2ccc(OCC(=O)O)cc2)C(=O)N[C@@H](CC(=O)O)C(=O)N[C@@H](Cc2cccc(C)c2)C(=O)N[C@@H](Cc2ccc(OCC(=O)O)cc2)C(=O)N[C@@H](Cc2ccc(-c3ccccc3)cc2)C(=O)N[C@@H](Cc2ccc(OCC(=O)O)cc2)C(=O)N(C)[C@@H](C)C1=O [Example 1186] ({CH2CO}-TY(Carboxymethyl)D[Phe(3-Me)]Y(Carboxymethyl)[Bip]Y(Carboxymethyl)[NMeA][NBuGly][Dab][Cha]VSC[Dab]-NH2; thioether N-14)
14 | 340 | CC(C)C[C@@H]1NC(=O)[C@H](Cc2c[nH]c3ccccc23)NC(=O)[C@H](CC(=O)O)NC(=O)[C@H](Cc2ccc(O)cc2)NC(=O)[C@H](Cc2ccncc2)NC(=O)CSC[C@@H](C(=O)NCC(N)=O)NC(=O)[C@H](CO)NC(=O)[C@H](C(C)C)NC(=O)[C@H](CC(C)C)NC(=O)[C@H](CC(N)=O)NC(=O)CN(C)C(=O)[C@H](C)N(C)C(=O)[C@H](C(C)C)NC(=O)[C@H](Cc2ccc(-c3ccccc3)cc2)NC1=O [Example 1107] ({CH2CO}-[4Pal]YDWL[Bip]V[NMeA][Sar]NLVSCG-NH2; thioether N-14)
15 | 120 | CC(C)C[C@@H]1NC(=O)[C@H](Cc2c[nH]c3ccccc23)NC(=O)[C@H](CC(=O)O)NC(=O)[C@H](Cc2ccc(O)cc2)NC(=O)[C@H](Cc2ccccc2)NC(=O)CSC[C@@H](C(=O)N[C@@H](C)C(N)=O)NC(=O)[C@H](CO)NC(=O)[C@H](C(C)C)NC(=O)[C@H](CC(C)C)NC(=O)[C@H](CC(N)=O)NC(=O)[C@H]2C[C@H](O)CN2C(=O)[C@H](C)N(C)C(=O)[C@H](C(C)C)NC(=O)[C@H](Cc2ccc(-c3ccccc3)cc2)NC1=O [Example 1054] ({CH2CO}-FYDWL[Bip]V[NMeA][dHyp]NLVSCA-NH2; thioether N-14)
